Measured values: patent publication US9492436B2, “Azabenzimidazole derivatives” (Boehringer Ingelheim International GmbH, priority 2013, dated 2016)
≈ marks a conversion by molar mass, not a printed value.

What was measured:
[1] = tested on: plasma proteins; experiment: Plasma protein binding by equilibrium dialysis, mouse plasma; assay type: in vitro ADME; conditions: 37° C.
Method: (§1) Equilibrium dialysis (ED) technique is used to determine the approximate in vitro fractional binding of test compounds to plasma proteins (human, rat mouse):
(§2) Teflon dialysis cells or RED-devices are used. Each cell consists of a donor and an acceptor chamber, separated by an ultrathin semipermeable membrane (cutoff 5-10 kDa, high permeability).
(§3) Stock solutions for each test compound are prepared in DMSO. Plasma (anticoagulant EDTA) is spiked with test compound and then transferred into the donor chamber, while dialysis buffer (PBS containing Dextran, pH 7.4) is dispensed into the acceptor chamber.
(§4) Dextran (Leuconostoc ssp, MW approx. 40000, No. 31389, Fluka) concentration [g/L] in PBS for species: • human: 40 g/L buffer • rat: 37 g/L buffer • mouse 32 g/L buffer.
(§5) Incubation is carried out for up to 6 hours (standard 3 h) under rotation at 37° C. After the dialysis period aliquots of both dialysates are analysed using HPLC-MS/MS.
(§6) Percent bound is calculated according to the equation: % bound=(Cp−Cb/Cp)×100 • Cp=plasma concentration • Cb=buffer concentration
(§7) Percent free is calculated according to the equation: % free=100−% bound

[2] = Aqueous solubility (buffer vs acetonitrile/water, 24 h shaking, LC-UV); assay type: physicochemical; conditions: kinetic from dmso stock, 2.5% DMSO, ">" = more than 90% dissolved
Method: The aqueous solubility of the compounds of the invention is determined by comparing the amount dissolved in buffer to the amount in an acetonitrile/water (1/1) solution. Starting from a 10 mM DMSO stock solution aliquots are diluted with acetonitrile/water (1/1) or buffer resp. After 24 h of shaking, the solutions are filtrated and analyzed by LC-UV. The amount dissolved in buffer is compared to the amount in the acetonitrile solution.
Solubility is usually being measured from 0.001 to 0.125 mg/ml at a DMSO concentration of 2.5%. If more than 90% of the compound is dissolved in buffer, the value is marked with “>”.

[3] = tested on: plasma proteins; experiment: Plasma protein binding by equilibrium dialysis, rat plasma; assay type: in vitro ADME; conditions: 37° C.
Method: as §1, §2, §3, §4, §5, §6, §7

[4] = target: T1, AMPK complex 1 (containing alpha1beta1gamma1) (Homo sapiens, UniProt Q13131+Q9Y478); experiment: In vitro AMPK activation assay (ADP-Glo Kinase Assay); assay type: biochemical; conditions: 30 μM ATP, 1 μM peptide, 60 min, room temperature
T1 construct: GST (Glutathion S transferase) (N); made in house; host or cells: baculovirus; virus made in Sf9, expression in High Five cells
T1 sequence (Q13131 whole entry): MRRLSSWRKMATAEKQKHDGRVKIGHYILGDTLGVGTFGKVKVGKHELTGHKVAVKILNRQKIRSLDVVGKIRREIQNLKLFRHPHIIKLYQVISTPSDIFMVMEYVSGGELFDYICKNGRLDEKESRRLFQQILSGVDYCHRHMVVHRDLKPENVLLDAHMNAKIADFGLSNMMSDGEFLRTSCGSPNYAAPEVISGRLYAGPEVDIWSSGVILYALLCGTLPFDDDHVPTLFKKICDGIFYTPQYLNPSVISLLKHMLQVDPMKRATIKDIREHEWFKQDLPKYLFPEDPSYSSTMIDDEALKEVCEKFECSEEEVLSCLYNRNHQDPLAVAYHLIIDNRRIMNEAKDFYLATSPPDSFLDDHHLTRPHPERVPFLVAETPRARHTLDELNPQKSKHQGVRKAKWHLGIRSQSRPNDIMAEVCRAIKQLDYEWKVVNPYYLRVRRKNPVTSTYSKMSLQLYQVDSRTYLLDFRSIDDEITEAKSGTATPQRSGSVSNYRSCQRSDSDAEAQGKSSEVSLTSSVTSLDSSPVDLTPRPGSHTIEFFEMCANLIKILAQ
T1 sequence (Q9Y478 whole entry): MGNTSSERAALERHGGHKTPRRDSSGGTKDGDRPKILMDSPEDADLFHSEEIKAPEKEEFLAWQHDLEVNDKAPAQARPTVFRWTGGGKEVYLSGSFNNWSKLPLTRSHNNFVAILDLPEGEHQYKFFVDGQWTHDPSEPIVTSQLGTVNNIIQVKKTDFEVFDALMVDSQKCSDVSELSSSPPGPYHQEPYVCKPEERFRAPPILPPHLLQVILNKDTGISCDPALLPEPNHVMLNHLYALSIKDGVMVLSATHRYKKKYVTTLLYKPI
T1 sequence (P54619 whole entry partner): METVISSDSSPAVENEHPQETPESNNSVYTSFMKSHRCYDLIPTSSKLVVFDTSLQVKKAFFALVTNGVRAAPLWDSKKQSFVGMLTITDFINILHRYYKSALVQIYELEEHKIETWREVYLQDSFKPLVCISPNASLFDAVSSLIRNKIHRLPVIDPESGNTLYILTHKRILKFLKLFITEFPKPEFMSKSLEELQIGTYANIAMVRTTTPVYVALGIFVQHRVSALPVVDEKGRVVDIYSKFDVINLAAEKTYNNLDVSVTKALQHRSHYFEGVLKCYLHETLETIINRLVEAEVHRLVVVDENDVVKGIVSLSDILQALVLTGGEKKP
How it was run: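 GST-tagged human AMPK alpha1beta1gamma1 expressed in insect cells, incubated with 1 μM peptide substrate and 30 μM ATP for 60 min at room temperature, 0.1% DMSO. ADP-Glo luminescence as % of vehicle control (AMP 30 μM high reference); EC50 from 4-parameter fit; activation above 100%.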

[5] = tested on: plasma proteins; experiment: Plasma protein binding by equilibrium dialysis, human plasma; assay type: in vitro ADME; conditions: 37° C.
Method: as §1, §2, §3, §4, §5, §6, §7

SMILES	Plasma Protein Binding [1] [% bound]	solubility at 24 h ([2]; pH 2.2 buffer) [µg/mL]	solubility at 24 h ([2]; pH 4.5 buffer) [µg/mL]	solubility at 24 h ([2]; pH 6.8 buffer) [µg/mL]	Plasma Protein Binding [3] [% bound]	EC50 [4] [nM]	Plasma Protein Binding [5] [% bound]
CS(C)(=O)=NCc1ccc(-c2ccc(-c3nc4[nH]c(O[C@@H]5CO[C@H]6[C@@H]5OC[C@H]6O)nc4cc3Cl)cc2)cc1 [Example 45, N-(4′-(6-Chloro-2-((3R,3aR,6R,6aR)-6-hydroxyhexahydrofuro[3,2-b]furan-3-yloxy)-3H-imidazo[4,5-b]pyridin-5-yl)biphenyl-4-ylmethyl)-S,S-dimethylsulfoximide]	99.23	> 119	5 (≈ 9.01 µM)	< 1	98.94	29	98.48
CS(C)(=O)=Nc1ccc(-c2ccc(-c3nc4[nH]c(O[C@@H]5CO[C@H]6[C@@H]5OC[C@H]6O)nc4cc3Cl)cc2)cc1 [Example 2, N-(4′-(6-Chloro-2-((3R,3aR,6R,6aR)-6-hydroxyhexahydrofuro[3,2-b]furan-3-yloxy)-3H-imidazo[4,5-b]pyridin-5-yl)biphenyl-4-yl)-S,S-dimethylsulfoximide]	98.68	17 (≈ 31.4 µM)	2 (≈ 3.7 µM)	1 (≈ 1.85 µM)	98.67	3	98.55
CN=S(C)(=O)c1ccc(-c2ccc(-c3nc4[nH]c(O[C@@H]5CO[C@H]6[C@@H]5OC[C@H]6O)nc4cc3Cl)cc2)cc1 (stereo partly drawn) [Example 10, (3R,3aR,6R,6aR)-6-(6-Chloro-5-(4′-(N,S-dimethylsulfonimidoyl)biphenyl-4-yl)-3H-imidazo[4,5-b]pyridin-2-yloxy)hexahydrofuro[3,2-b]furan-3-ol]	98.64	105 (≈ 194 µM)	< 1	< 1	98.23	4	98.92
